Reference: the NIST ThermoML archive (doi:10.1016/j.jct.2015.11.009)

Assay: xn = mol fraction of the nth substance listed
Details: 100 kPa, Liquid; for mass density: Vibrating tube method; for speed of sound: Frequency=3 MHz, Sing-around technique in a fixed-path interferometer

O=C1CCCN1 [2-pyrrolidinone] + CCCCn1cc[n+](C)c1.F[B-](F)(F)F
Details	mass density, 303.15 K [kg/m3]	mass density, 308.15 K [kg/m3]	mass density, 313.15 K [kg/m3]	mass density, 318.15 K [kg/m3]	mass density, 323.15 K [kg/m3]	speed of sound, 308.15 K [m/s]	speed of sound, 313.15 K [m/s]	speed of sound, 318.15 K [m/s]	speed of sound, 323.15 K [m/s]
x2 = 0	1103.07	1098.99	1094.9	1090.82	1086.75	1601.6	1585.4	1570.4	1553.5
x2 = 0.102	1124.98	1121.03	1117.09	1113.15	1109.21	1595.5	1580.5	1566	1550
x2 = 0.1951	1139	1135.12	1131.25	1127.38	1123.52	1589.2	1575	1560.9	1545.8
x2 = 0.3046	1151.24	1147.43	1143.62	1139.83	1136.08	1580.2	1566.5	1553.8	1539.4
x2 = 0.3886	1159.65	1155.87	1152.11	1148.36	1144.62	1573.8	1560.7	1547.8	1534.3
x2 = 0.5262	1169.51	1165.8	1162.12	1158.47	1154.82	1565.4	1552.7	1541.2	1528
x2 = 0.6185	1175.68	1172.01	1168.35	1164.72	1161.11	1560.1	1547.9	1536.4	1524
x2 = 0.69	1179.91	1176.26	1172.63	1169.02	1165.45	1554.7	1542.5	1530.7	1519.2
x2 = 0.7844	1185.05	1181.42	1177.81	1174.23	1170.66	1550	1537.9	1526.2	1514.2
x2 = 0.8861	1189.85	1186.26	1182.68	1179.12	1175.58	1545.4	1533.5	1521.9	1510.2
